Experimental data published in article PMC12578388, “Allosteric modulation of the solute carrier transporter SLC39A8 potentiates manganese and cadmium uptake” (The Journal of Clinical Investigation, 2025).

Experiments:
Format in all cases: cell-based
rat SLC39A8 = target: T1, rat SLC39A8 (Rattus norvegicus, UniProt Q5FVQ0, Y328C); assay: Cd uptake in cells expressing mutant rat SLC39A8 (gain of EFV sensitivity)
T1 sequence (Q5FVQ0 20-462 Y328C): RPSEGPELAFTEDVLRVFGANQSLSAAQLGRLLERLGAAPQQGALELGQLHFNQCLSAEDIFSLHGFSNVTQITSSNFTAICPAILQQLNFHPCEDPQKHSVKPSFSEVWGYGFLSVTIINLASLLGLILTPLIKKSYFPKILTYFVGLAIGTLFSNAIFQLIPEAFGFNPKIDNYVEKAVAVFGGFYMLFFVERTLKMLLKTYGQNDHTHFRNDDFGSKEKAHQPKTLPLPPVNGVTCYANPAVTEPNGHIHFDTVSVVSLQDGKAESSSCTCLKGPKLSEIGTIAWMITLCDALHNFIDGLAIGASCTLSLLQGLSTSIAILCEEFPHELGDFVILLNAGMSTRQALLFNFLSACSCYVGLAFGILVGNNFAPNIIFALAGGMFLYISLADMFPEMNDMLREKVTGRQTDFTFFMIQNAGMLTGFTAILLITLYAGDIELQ

mouse SLC39A8 = target: T2, mouse SLC39A8 (Mus musculus, UniProt Q91W10); assay: Cd uptake in cells expressing mouse SLC39A8
T2 sequence (Q91W10 20-462): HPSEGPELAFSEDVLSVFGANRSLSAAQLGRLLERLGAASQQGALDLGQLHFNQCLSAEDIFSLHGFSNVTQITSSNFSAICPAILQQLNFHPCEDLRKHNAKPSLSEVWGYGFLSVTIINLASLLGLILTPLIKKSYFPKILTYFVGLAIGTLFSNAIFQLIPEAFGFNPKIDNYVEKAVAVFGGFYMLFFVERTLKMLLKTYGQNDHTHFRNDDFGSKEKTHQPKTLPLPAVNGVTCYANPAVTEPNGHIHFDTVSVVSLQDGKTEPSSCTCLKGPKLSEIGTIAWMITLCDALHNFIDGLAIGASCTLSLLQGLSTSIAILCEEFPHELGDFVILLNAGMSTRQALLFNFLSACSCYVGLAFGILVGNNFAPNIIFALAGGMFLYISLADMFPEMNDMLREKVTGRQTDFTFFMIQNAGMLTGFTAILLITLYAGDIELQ

pig SLC39A8 = target: T3, pig SLC39A8 (Sus scrofa, UniProt A0A480EKF5, F327C); assay: Cd uptake in cells expressing mutant pig SLC39A8 (gain of EFV sensitivity)
T3 sequence (A0A480EKF5 20-461 F327C): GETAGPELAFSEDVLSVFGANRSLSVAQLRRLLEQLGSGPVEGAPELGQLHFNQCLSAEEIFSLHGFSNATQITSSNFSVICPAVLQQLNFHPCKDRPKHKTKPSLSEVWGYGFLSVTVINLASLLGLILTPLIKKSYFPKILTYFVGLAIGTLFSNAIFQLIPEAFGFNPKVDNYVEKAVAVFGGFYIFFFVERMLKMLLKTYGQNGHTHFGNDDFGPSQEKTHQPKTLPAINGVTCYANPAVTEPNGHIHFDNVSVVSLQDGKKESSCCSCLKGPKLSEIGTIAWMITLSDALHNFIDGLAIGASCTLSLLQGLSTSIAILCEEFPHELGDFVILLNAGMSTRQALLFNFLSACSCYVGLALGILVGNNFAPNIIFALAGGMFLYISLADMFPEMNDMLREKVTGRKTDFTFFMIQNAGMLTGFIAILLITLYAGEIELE

For O=C1Nc2ccc(Cl)cc2[C@@](C#CC2CC2)(C(F)(F)F)O1 [compound 1, efavirenz], the “Cd uptake in cells expressing mutant rat SLC39A8 (gain of EFV sensitivity)” value (rat SLC39A8) was “EFV sensitivity could be created by replacing these residues with cysteine in pig F327C and rat Y328C, respectively”, the “Cd uptake in cells expressing mouse SLC39A8” value (mouse SLC39A8) was “EFV was able to enhance Cd uptake in cells expressing mouse SLC39A8 but not chicken, frog, or zebrafish” and the “Cd uptake in cells expressing mutant pig SLC39A8 (gain of EFV sensitivity)” value (pig SLC39A8) was “EFV sensitivity could be created by replacing these residues with cysteine in pig F327C and rat Y328C, respectively”.
